Experimental data published in ChEMBL document CHEMBL1147903, “Synthesis and antibacterial activity of oxazolidinones containing triazolyl group” (2007).
Values after ≈ are worked out from the molar mass of the structure shown.

Columns and labels:
Assay type in all cases: functional
[1] = tested on: Staphylococcus epidermidis; test: Antibacterial activity against methicillin-resistant Staphylococcus epidermidis by microdilution broth method
[2] = tested on: Staphylococcus aureus; test: Antibacterial activity against methicillin-susceptible Staphylococcus aureus by microdilution broth method
[3] = tested on: Staphylococcus aureus; test: Antibacterial activity against methicillin-resistant Staphylococcus aureus by microdilution broth method
[4] = tested on: Staphylococcus epidermidis; test: Antibacterial activity against methicillin-susceptible Staphylococcus epidermidis by microdilution broth method
[5] = tested on: Enterococcus faecalis; test: Antibacterial activity against Enterococcus faecalis by microdilution broth method
[6] = tested on: Streptococcus pneumoniae; test: Antibacterial activity against penicillin-resistant Streptococcus pneumoniae by microdilution broth method
[7] = tested on: Staphylococcus aureus; test: Antibacterial activity against methicillin-susceptible Staphylococcus aureus 04-5 infected po dosed KunMing mouse
[8] = tested on: Staphylococcus epidermidis; test: Antibacterial activity against methicillin-resistant Staphylococcus epidermidis 03427 infected po dosed KunMing mouse
[9] = tested on: Staphylococcus aureus; test: Antibacterial activity against methicillin-resistant Staphylococcus aureus BAA-42 infected po dosed KunMing mouse

SMILES	MIC [1] [mg/L]	MIC [2] [mg/L]	MIC [3] [mg/L]	MIC [4] [mg/L]	MIC [5] [mg/L]	MIC [6] [mg/L]	ED50 [7] [mg/kg]	ED50 [8] [mg/kg]	ED50 [9] [mg/kg]
COc1ccc(S(=O)(=O)N2CCN(c3ccc(N4C[C@H](Cn5ccnn5)OC4=O)cc3F)CC2)cc1	2 (≈ 3.87 µM)	1 (≈ 1.94 µM)	0.5 (≈ 0.968 µM)	2 (≈ 3.87 µM)	2 (≈ 3.87 µM)	0.5 (≈ 0.968 µM)			
O=C1O[C@@H](Cn2ccnn2)CN1c1ccc(N2CCN(S(=O)(=O)c3ccc(F)cc3F)CC2)c(F)c1	1 (≈ 1.91 µM)	2 (≈ 3.83 µM)	2 (≈ 3.83 µM)	1 (≈ 1.91 µM)	2 (≈ 3.83 µM)	2 (≈ 3.83 µM)			
O=C1O[C@@H](Cn2ccnn2)CN1c1ccc(N2CCN(S(=O)(=O)c3cccc([N+](=O)[O-])c3)CC2)c(F)c1	0.5 (≈ 0.941 µM)	0.06 (≈ 0.113 µM)	0.06 (≈ 0.113 µM)	0.06 (≈ 0.113 µM)	0.03 (≈ 0.0564 µM)	0.015 (≈ 0.0282 µM)	55.1	84.3	> 100
O=C1O[C@@H](Cn2ccnn2)CN1c1ccc(N2CCN(S(=O)(=O)c3cccc(F)c3)CC2)c(F)c1	1 (≈ 1.98 µM)	0.001 (≈ 0.00198 µM)	0.25 (≈ 0.496 µM)	0.25 (≈ 0.496 µM)	0.004 (≈ 0.00793 µM)	0.002 (≈ 0.00396 µM)	55.1	> 100	> 100
Nc1cccc(S(=O)(=O)N2CCN(c3ccc(N4C[C@H](Cn5ccnn5)OC4=O)cc3F)CC2)c1	1 (≈ 1.99 µM)	0.125 (≈ 0.249 µM)	0.25 (≈ 0.498 µM)	0.5 (≈ 0.997 µM)	0.25 (≈ 0.498 µM)	0.5 (≈ 0.997 µM)	> 100	> 100	
O=C1O[C@@H](Cn2ccnn2)CN1c1ccc(N2CCN(S(=O)(=O)c3cccc(C(F)(F)F)c3)CC2)c(F)c1	0.5 (≈ 0.902 µM)	0.06 (≈ 0.108 µM)	0.06 (≈ 0.108 µM)	0.06 (≈ 0.108 µM)	0.03 (≈ 0.0541 µM)	0.015 (≈ 0.0271 µM)			
O=C1O[C@@H](Cn2ccnn2)CN1c1ccc(N2CCNCC2)c(F)c1	1 (≈ 2.89 µM)	1 (≈ 2.89 µM)	1 (≈ 2.89 µM)	1 (≈ 2.89 µM)	2 (≈ 5.77 µM)	1 (≈ 2.89 µM)			
O=C1O[C@@H](Cn2ccnn2)CN1c1ccc(N2CCN(S(=O)(=O)c3ccccc3[N+](=O)[O-])CC2)c(F)c1	1 (≈ 1.88 µM)	0.5 (≈ 0.941 µM)	1 (≈ 1.88 µM)	0.5 (≈ 0.941 µM)	0.5 (≈ 0.941 µM)	0.5 (≈ 0.941 µM)			
O=C1O[C@@H](Cn2ccnn2)CN1c1ccc(N2CCN(S(=O)(=O)c3ccc(Br)cc3)CC2)c(F)c1	4 (≈ 7.07 µM)	4 (≈ 7.07 µM)	8 (≈ 14.1 µM)	8 (≈ 14.1 µM)	2 (≈ 3.54 µM)	2 (≈ 3.54 µM)			
O=C1O[C@@H](Cn2ccnn2)CN1c1ccc(N2CCN(S(=O)(=O)c3ccc(F)cc3)CC2)c(F)c1	1 (≈ 1.98 µM)	0.5 (≈ 0.991 µM)	1 (≈ 1.98 µM)	0.5 (≈ 0.991 µM)	1 (≈ 1.98 µM)	0.5 (≈ 0.991 µM)			
N#Cc1ccc(S(=O)(=O)N2CCN(c3ccc(N4C[C@H](Cn5ccnn5)OC4=O)cc3F)CC2)cc1	2 (≈ 3.91 µM)	2 (≈ 3.91 µM)	0.5 (≈ 0.977 µM)	2 (≈ 3.91 µM)	4 (≈ 7.82 µM)	4 (≈ 7.82 µM)			
O=C1O[C@@H](Cn2ccnn2)CN1c1ccc(N2CCN(S(=O)(=O)c3cccs3)CC2)c(F)c1	1 (≈ 2.03 µM)	1 (≈ 2.03 µM)	1 (≈ 2.03 µM)	1 (≈ 2.03 µM)	1 (≈ 2.03 µM)	1 (≈ 2.03 µM)			
Cc1ccc(S(=O)(=O)N2CCN(c3ccc(N4C[C@H](Cn5ccnn5)OC4=O)cc3F)CC2)cc1	2 (≈ 4 µM)	1 (≈ 2 µM)	1 (≈ 2 µM)	0.5 (≈ 0.999 µM)	2 (≈ 4 µM)	1 (≈ 2 µM)			
CN[C@H](CC(C)C)C(=O)N[C@H]1C(=O)N[C@@H](CC(N)=O)C(=O)N[C@H]2C(=O)N[C@H]3C(=O)N[C@H](C(=O)N[C@H](C(=O)O)c4cc(O)cc(O)c4-c4cc3ccc4O)[C@H](O)c3ccc(c(Cl)c3)Oc3cc2cc(c3O[C@@H]2O[C@H](CO)[C@@H](O)[C@H](O)[C@H]2O[C@H]2C[C@](C)(N)[C@H](O)[C@H](C)O2)Oc2ccc(cc2Cl)[C@H]1O [VANCOMYCIN]	0.25 (≈ 0.173 µM)	0.25 (≈ 0.173 µM)		0.5 (≈ 0.345 µM)	0.25 (≈ 0.173 µM)	0.25 (≈ 0.173 µM)			
O=C1O[C@@H](Cn2ccnn2)CN1c1ccc(N2CCN(S(=O)(=O)c3ccc([N+](=O)[O-])cc3)CC2)c(F)c1	1 (≈ 1.88 µM)	1 (≈ 1.88 µM)	1 (≈ 1.88 µM)	1 (≈ 1.88 µM)	1 (≈ 1.88 µM)	0.5 (≈ 0.941 µM)			
O=C(OCc1ccccc1)N1CCN(c2ccc(N3C[C@H](Cn4ccnn4)OC3=O)cc2F)CC1	0.5 (≈ 1.04 µM)	0.25 (≈ 0.52 µM)	0.5 (≈ 1.04 µM)	1 (≈ 2.08 µM)	0.5 (≈ 1.04 µM)	0.5 (≈ 1.04 µM)			
O=C1O[C@@H](Cn2ccnn2)CN1c1ccc(N2CCN(S(=O)(=O)c3ccccc3C(F)(F)F)CC2)c(F)c1	2 (≈ 3.61 µM)	1 (≈ 1.8 µM)	0.5 (≈ 0.902 µM)	2 (≈ 3.61 µM)	2 (≈ 3.61 µM)	0.5 (≈ 0.902 µM)			
O=C1O[C@@H](Cn2ccnn2)CN1c1ccc(N2CCN(S(=O)(=O)c3ccccc3)CC2)c(F)c1	2 (≈ 4.11 µM)	1 (≈ 2.06 µM)	1 (≈ 2.06 µM)	0.5 (≈ 1.03 µM)	2 (≈ 4.11 µM)	1 (≈ 2.06 µM)			
O=C1O[C@@H](Cn2ccnn2)CN1c1ccc(N2CCN(S(=O)(=O)c3ccc(Cl)cc3)CC2)c(F)c1	0.5 (≈ 0.96 µM)	0.125 (≈ 0.24 µM)	0.5 (≈ 0.96 µM)	0.5 (≈ 0.96 µM)	0.25 (≈ 0.48 µM)	0.125 (≈ 0.24 µM)			
CC(=O)NC[C@H]1CN(c2ccc(N3CCOCC3)c(F)c2)C(=O)O1 [LINEZOLID]	0.5 (≈ 1.48 µM)	0.125 (≈ 0.371 µM)	1 (≈ 2.96 µM)	1 (≈ 2.96 µM)	0.25 (≈ 0.741 µM)	0.25 (≈ 0.741 µM)	24	84.8	17.9
O=C1O[C@@H](Cn2ccnn2)CN1c1ccc(N2CCN(S(=O)(=O)c3ccc(C(F)(F)F)cc3)CC2)c(F)c1	1 (≈ 1.8 µM)	0.5 (≈ 0.902 µM)	1 (≈ 1.8 µM)	0.5 (≈ 0.902 µM)	0.5 (≈ 0.902 µM)	0.5 (≈ 0.902 µM)			
